In ChEMBL document CHEMBL1201862, “PubChem BioAssay data set” (2004):
The source made the active and inactive calls.

Key:
[1] = molecular target: T1, RNA-binding protein pos-1 (Caenorhabditis elegans, UniProt G5EF15); assay: inhibitors of POS-1/mex-3 RNA binding, dose response, biochemical, fluorescence polarization (AID 1964);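 also: purified POS-1 fused to maltose binding protein made in E. coli; potency of compounds blocking POS-1 binding to fluorescent RNA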
T1 sequence (G5EF15 whole entry): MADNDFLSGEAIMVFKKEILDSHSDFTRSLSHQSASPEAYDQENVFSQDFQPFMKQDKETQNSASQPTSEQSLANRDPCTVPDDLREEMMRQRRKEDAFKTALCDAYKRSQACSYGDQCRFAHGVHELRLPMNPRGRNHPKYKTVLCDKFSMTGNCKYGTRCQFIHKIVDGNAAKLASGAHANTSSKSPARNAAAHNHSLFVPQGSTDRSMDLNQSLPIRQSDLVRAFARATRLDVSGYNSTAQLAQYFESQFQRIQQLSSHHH

[2] = molecular target: T2, Zinc finger protein mex-5 (Caenorhabditis elegans, UniProt Q9XUB2); assay: MEX-5/TCR-2 RNA interaction inhibitors, dose response, biochemical, C. elegans, fluorescence polarization (AID 1960)
T2 sequence (Q9XUB2 whole entry): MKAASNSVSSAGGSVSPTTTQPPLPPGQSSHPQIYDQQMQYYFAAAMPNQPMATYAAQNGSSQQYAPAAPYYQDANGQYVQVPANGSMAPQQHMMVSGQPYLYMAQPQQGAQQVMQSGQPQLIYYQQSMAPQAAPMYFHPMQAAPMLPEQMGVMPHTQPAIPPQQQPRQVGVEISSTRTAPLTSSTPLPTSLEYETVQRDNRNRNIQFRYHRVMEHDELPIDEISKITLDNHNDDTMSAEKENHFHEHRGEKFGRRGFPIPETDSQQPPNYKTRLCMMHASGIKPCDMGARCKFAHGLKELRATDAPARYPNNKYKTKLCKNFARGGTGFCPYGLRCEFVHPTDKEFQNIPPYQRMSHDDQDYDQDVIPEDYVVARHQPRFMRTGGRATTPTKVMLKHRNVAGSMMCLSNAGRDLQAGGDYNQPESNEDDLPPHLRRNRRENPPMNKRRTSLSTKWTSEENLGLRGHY

[3] = molecular target: Lysine-specific demethylase 4C (Homo sapiens, UniProt Q9H3R0); assay: GASC-1 (JMJD2C) histone demethylase inhibitors, dose response, biochemical, DELFIA europium, cherry-picked samples (AID 488835); type: functional
[4] = growth suppression of PTEN-null colon cells, dose response, cell-based, HCT116 PTEN knockout (AID 1047); type: functional;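 also: HCT116 colon tumor cells with PTEN knocked out; cells exposed to compound for 60 hours before readout; potency for loss of cell viability measured by luminescence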
[5] = growth suppression of beta-catenin-knockout colon cells, dose response, cell-based, HCT116, human colon tumor (AID 1045); type: functional;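 also: HCT116 colon tumor cells with beta catenin knocked out; cells exposed to compound for 60 hours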
Cytochrome P450 2C19 = Cytochrome P450 2C19 (Homo sapiens, UniProt P33261); assay: Cytochrome panel assay with activity outcomes. Panel member name: p450-cyp2c19 Compounds with AC50 equal or less than 10 uM are considered active; type: functional; details: read-out: AC50
Cytochrome P450 3A4 = Cytochrome P450 3A4 (Homo sapiens, UniProt P08684);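 also: CYP3A4 tested as one member of a cytochrome P450 panel screen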
[6] = inhibitors of firefly luciferase expression or activity, dose response, H4 neuroglioma cells, luminescence (AID 1990); type: functional, cell-based
[7] = luciferase reporter signal reduction – luminescence, H4-C neuroglioblastoma cells, dose response (AID 2458); type: functional, cell-based;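 also: H4 neuroglioblastoma cells stably carrying a luciferase reporter gene fusion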
[8] = molecular target: Luciferin 4-monooxygenase (Photinus pyralis, UniProt P08659); assay: Counter Screen for Luciferase-based Assay Positives. [Related pubchem assays: 620, 618, 411 ]
cells = type: functional, cell-based
[9] = molecular target: T3, Heat shock factor protein 1 (Mus musculus, UniProt P38532); assay: inhibition of MG132-induced HSE-luciferase signal, confirmation, cell-based, NIH3T3, luminescence, dose retest (AID 2382); type: functional;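 also: NIH3T3 fibroblasts with HSF1-driven luciferase reporter stressed by proteasome inhibitor MG132; luminescence from HSF1-driven luciferase expression after 8 hours of MG132 stress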
T3 sequence (P38532 whole entry): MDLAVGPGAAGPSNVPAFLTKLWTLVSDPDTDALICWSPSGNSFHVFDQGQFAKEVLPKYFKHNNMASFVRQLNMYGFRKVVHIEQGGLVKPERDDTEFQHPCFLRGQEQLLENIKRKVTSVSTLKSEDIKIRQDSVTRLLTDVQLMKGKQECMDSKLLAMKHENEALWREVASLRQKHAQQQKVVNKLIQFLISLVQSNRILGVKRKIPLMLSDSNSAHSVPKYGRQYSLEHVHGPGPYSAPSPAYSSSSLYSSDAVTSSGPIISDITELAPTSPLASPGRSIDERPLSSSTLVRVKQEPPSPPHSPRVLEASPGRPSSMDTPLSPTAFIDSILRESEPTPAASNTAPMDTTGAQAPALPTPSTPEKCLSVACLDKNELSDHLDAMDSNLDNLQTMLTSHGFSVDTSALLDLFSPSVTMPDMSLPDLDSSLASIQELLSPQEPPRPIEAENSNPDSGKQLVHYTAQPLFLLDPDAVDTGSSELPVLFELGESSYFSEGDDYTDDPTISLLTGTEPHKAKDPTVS

[10] = inhibitors of SNCA 5'UTR-driven reporter translation, confirmation, H4 neuroglioma cells, luminescence (AID 1988); type: functional, cell-based
HT-1080 = assay: cytotoxicity in HT1080 fibrosarcoma cells, cell-based, fluorescence readout (AID 620); type: functional; details: Homo sapiens
[11] = inhibitors of SNCA 5'UTR-driven translation, confirmation, luminescence, H4 neuroglioblastoma cells, dose confirmation (AID 2454); type: functional, cell-based;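 also: H4 neuroglioblastoma cells carrying an alpha-synuclein 5'UTR luciferase reporter; potency for inhibition of the luciferase signal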
Jurkat = assay: antigen receptor-induced NF-kB inhibitors, dose response, Jurkat, luciferase reporter, luminescence, B- and T-cell (AID 489004); type: functional, cell-based; details: Homo sapiens;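 also: NF-kB luciferase reporter Jurkat cells stimulated with PMA plus ionomycin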
[12] = cytotoxicity in HEK-293T NF-kB-Luc cells, dose response, cytotoxicity control for B/T-cell NF-kB inhibitor project, cell-based, uHTS hits (AID 489019); type: functional;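 also: IC50 reflects cytotoxicity as loss of cell viability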
[13] = molecular target: T4, Microphthalmia-associated transcription factor (Homo sapiens, UniProt O75030); assay: TRPM1 promoter luciferase signal decrease, dose response, MITF inhibitor project, cell-based, SK-MEL-5, cherry-picked, set 3 (AID 493073); type: functional
T4 sequence (O75030 whole entry): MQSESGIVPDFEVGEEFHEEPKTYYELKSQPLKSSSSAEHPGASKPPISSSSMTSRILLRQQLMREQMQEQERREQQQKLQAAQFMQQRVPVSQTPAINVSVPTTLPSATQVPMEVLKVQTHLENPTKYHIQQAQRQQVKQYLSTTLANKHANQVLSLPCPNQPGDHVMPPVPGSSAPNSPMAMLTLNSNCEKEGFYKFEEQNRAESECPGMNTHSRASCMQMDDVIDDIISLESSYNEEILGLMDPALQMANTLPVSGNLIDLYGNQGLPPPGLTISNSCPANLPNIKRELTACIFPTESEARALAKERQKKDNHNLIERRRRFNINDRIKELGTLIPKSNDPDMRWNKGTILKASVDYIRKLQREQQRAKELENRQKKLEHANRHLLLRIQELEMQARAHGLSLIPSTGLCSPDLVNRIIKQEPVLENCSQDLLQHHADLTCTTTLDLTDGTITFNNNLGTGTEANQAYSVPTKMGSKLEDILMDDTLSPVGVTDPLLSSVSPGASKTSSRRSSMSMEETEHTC

[14] = inhibitors of HIV Env-driven cell fusion, dose response, cherry-pick (AID 652057); type: functional, cell-based
[15] = ZM109 Env clade C HIV-1 fusion inhibitors, dose response, HeLa effector, CEM target cells, luciferase, cherry-pick (AID 652058); type: functional, cell-based
[16] = off-target signal loss in HeLa-CEM21 co-culture – HeLa F-luc CTL cells, cherry-picked, counter-screen for HIV-1 Env fusion inhibitor project, dose response (AID 652040); type: functional, cell-based;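 also: potency for signal decrease marking cytotoxic or nonspecific inhibition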
[17] = inhibitors of clade B AD8 Env fusion, dose response, cell-based, cherry-pick (AID 652062); type: functional;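 also: luciferase signal from cell-cell fusion driven by HIV-1 clade B AD8 Env; potency is for inhibitors of fusion seen as a drop in luminescence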

Sequence of Luciferin 4-monooxygenase (P08659 whole entry): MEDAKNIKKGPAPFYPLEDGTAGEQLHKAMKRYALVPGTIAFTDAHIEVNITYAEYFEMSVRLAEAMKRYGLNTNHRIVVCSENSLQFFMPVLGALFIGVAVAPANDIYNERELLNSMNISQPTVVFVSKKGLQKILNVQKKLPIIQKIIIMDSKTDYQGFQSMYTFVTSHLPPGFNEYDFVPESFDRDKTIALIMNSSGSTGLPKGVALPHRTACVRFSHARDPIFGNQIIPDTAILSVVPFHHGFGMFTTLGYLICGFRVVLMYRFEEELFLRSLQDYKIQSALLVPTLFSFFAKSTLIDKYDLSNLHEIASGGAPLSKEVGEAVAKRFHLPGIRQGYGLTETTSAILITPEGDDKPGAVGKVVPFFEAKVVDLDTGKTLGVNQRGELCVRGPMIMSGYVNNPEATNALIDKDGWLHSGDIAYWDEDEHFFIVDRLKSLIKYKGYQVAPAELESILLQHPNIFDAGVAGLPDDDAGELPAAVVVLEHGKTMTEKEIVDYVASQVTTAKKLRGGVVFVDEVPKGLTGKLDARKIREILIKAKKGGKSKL
Sequence of Cytochrome P450 2C19 (P33261 whole entry): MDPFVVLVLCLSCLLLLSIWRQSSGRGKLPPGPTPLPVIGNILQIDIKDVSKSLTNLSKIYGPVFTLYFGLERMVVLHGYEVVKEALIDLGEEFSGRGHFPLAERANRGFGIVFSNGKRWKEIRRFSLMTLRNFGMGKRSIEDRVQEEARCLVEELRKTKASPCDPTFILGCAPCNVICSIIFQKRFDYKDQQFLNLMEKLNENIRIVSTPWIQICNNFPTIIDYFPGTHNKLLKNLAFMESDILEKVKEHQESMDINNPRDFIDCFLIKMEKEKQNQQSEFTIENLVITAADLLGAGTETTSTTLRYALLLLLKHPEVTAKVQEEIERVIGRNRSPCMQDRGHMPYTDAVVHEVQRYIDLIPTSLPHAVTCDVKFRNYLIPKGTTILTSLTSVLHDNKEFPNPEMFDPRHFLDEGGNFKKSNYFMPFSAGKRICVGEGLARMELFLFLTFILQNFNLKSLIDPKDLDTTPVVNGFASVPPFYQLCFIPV
Sequence of Cytochrome P450 3A4 (P08684 whole entry): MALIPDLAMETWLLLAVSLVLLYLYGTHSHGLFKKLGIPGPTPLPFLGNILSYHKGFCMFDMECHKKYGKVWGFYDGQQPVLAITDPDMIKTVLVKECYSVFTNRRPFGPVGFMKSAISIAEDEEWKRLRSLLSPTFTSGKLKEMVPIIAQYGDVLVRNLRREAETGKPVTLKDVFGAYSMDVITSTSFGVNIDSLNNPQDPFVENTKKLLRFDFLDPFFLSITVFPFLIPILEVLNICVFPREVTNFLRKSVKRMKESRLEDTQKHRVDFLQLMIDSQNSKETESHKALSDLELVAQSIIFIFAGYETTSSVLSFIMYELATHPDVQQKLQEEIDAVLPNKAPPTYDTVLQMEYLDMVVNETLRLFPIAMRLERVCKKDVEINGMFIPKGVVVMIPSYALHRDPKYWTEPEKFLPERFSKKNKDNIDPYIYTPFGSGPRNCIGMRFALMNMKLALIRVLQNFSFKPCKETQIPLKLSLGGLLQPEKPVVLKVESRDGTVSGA
Sequence of Lysine-specific demethylase 4C (Q9H3R0 whole entry): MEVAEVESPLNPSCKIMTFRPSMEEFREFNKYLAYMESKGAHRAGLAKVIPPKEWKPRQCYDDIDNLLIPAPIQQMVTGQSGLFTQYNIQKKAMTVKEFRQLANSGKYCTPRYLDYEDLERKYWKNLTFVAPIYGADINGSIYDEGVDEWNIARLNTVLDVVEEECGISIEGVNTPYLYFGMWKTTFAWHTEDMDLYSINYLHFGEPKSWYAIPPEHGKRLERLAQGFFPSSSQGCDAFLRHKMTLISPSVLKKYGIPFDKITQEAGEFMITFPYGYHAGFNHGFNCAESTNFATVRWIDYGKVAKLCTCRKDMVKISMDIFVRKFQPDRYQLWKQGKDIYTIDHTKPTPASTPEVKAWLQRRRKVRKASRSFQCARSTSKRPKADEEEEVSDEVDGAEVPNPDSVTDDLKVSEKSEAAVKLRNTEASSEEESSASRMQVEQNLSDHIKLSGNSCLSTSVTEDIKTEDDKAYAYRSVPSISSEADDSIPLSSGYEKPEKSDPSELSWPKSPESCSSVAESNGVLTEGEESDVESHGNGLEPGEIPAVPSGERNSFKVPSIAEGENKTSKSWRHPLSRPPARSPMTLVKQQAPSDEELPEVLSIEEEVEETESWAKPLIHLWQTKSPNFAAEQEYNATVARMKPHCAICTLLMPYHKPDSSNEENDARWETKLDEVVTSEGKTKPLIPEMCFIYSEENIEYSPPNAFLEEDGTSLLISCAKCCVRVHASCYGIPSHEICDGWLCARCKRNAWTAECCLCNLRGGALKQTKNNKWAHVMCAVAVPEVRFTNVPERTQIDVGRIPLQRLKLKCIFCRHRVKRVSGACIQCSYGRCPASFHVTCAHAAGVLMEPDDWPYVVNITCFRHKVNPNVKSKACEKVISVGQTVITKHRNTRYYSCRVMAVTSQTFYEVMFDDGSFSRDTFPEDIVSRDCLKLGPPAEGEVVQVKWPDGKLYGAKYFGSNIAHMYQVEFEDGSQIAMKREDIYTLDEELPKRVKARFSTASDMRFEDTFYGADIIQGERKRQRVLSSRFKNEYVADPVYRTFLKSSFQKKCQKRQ

C=CCN1C(=O)NC(=O)/C(=C/c2ccc(OC)c(CSc3ccccn3)c2)C1=O
active: AC50 [3] 40100 nM
> 300000 nM (not active): EC50 [1] | EC50 [2]

Cc1sc(NC(=O)c2ccc(OCC(C)C)cc2)c(C(N)=O)c1-c1ccc(Cl)cc1Cl
inconclusive: AC50 (Cytochrome P450 2C19) 1780 nM | AC50 (Cytochrome P450 3A4)
active: EC50 [4] 18500 nM | EC50 [5] 48200 nM

CC(C)(C)c1ccc(C(=O)Nc2ccc(CC(=O)O)cc2)o1
inactive: IC50 [12] > 80000 nM
active: EC50 [6] < 100 nM | EC50 [7] 106 nM | EC50 [8] 570 nM | EC50 (cells) 344 nM | EC50 [9] < 160 nM | EC50 [10] < 100 nM | EC50 [11] 113 nM | IC50 (Jurkat) < 160 nM | AC50 [13] 329 nM | AC50 [14] 392 nM | AC50 [15] < 260 nM | AC50 [16] 558 nM | AC50 [17] < 260 nM
> 50000 nM (not active): EC50 (HT-1080)
